Assay results as given in patent publication US10118930B2, “Piperidinylpyrazolopyrimidinones and their use” (BAYER PHARMA AKTIENGESELLSCHAFT, priority 2015, dated 2018).
Structures can show the parent of a compound that is named as a salt.

These molecules were tested on clot lysis (fibrinolysis) in diluted human citrated plasma, tPA-induced (assay: Plasma-based clot lysis assay (5%)). Conditions: human citrated platelet-poor plasma 5%, fibrinogen 3 μM, CaCl2 10 mM, tPA 0.2 nM, 37° C., OD at 405 nm.
Type: biochemical
Method in brief: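 Clot formation and breakdown triggered by CaCl2 (10 mM final) plus tPA (0.2 nM final) at 37° C, in 5% diluted human plasma supplemented with 3 μM fibrinogen (HEPES/NaCl/Brij buffer, pH 7). IC50 obtained from time courses relative to a blank control.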

Compound	IC50
Cc1ccc(-c2noc(-c3cnn4c(C5CCNCC5)cc(=O)[nH]c34)n2)c(C)c1 [Example 127, 3-[3-(2,4-Dimethylphenyl)-1,2,4-oxadiazol-5-yl]-7-(piperidin-4-yl)pyrazolo[1,5-a]pyrimidin-5(4H)-one hydrochloride]	62 nM
Cc1nn2c(C3CCNCC3)cc(=O)[nH]c2c1C(=O)N1CCCC(C)(C)C1 [Example 420, 3-[(3,3-dimethyl-piperidin-1-yl)carbonyl]-2-methyl-7-(piperidin-4-yl) pyrazolo[1,5-a] pyrimidin-5(4H)-one hydrochloride]	47 nM
O=c1cc(C2CCNCC2)n2ncc(-c3nc(-c4ccc(OC(F)(F)F)c(Cl)c4)no3)c2[nH]1 [Example 149, 3-{3-[3-Chloro-4-(trifluoromethoxy)phenyl]-1,2,4-oxadiazol-5-yl}-7-(piperidin-4-yl)pyrazolo[1,5-a]pyrimidin-5(4H)-one hydrochloride]	100 nM
C[C@H]1C[C@H](c2cc(=O)[nH]c3c(Cl)cnn23)CCN1 [Example 40, (−)-trans-3-Chloro-7-(2-methylpiperidin-4-yl)pyrazolo[1,5-a]pyrimidin-5(4H)-one hydrochloride]	14 nM
O=c1cc(C2CCNCC2)n2ncc(-c3nc(-c4ccc(C(F)(F)F)nc4)no3)c2[nH]1 [Example 188, 7-(piperidin-4-yl)-3-{3-[6-(trifluoromethyl)pyridin-3-yl]-1,2,4-oxadiazol-5-yl}pyrazolo[1,5-a]pyrimidin-5(4H)-one hydrochloride]	35 nM
Cc1nn2c(C3CCNCC3)cc(=O)[nH]c2c1C(=O)N1CCCCC1 [Example 399, 2-methyl-7-(piperidin-4-yl)-3-(piperidin-1-ylcarbonyl) pyrazolo[1,5-a] pyrimidin-5(4H)-one hydrochloride]	42 nM
O=c1cc(C2CCNCC2)n2ncc(-c3nnc(CC4CCCCC4)o3)c2[nH]1 [Example 182, 3-[5-(cyclohexylmethyl)-1,3,4-oxadiazol-2-yl]-7-(piperidin-4-yl)pyrazolo[1,5-a]pyrimidin-5 (4H)-one hydrochloride]	35 nM
O=c1cc(C2CCNCC2)n2ncc(-c3nnc(Cc4ccccc4)o3)c2[nH]1 [Example 180, 3-(5-benzyl-1,3,4-oxadiazol-2-yl)-7-(piperidin-4-yl)pyrazolo[1,5-a]pyrimidin-5(4H)-one hydrochloride]	35 nM
O=c1cc(C2CCNCC2)n2ncc(-c3nc(-c4cccnc4Cl)no3)c2[nH]1 [Example 148, 3-[3-(2-Chloropyridin-3-yl)-1,2,4-oxadiazol-5-yl]-7-(piperidin-4-yl)pyrazolo[1,5-a]pyrimidin-5(4H)-one hydrochloride]	43 nM
O=c1cc(C2CCNCC2)n2ncc(-c3nc(-c4cnccc4C(F)(F)F)no3)c2[nH]1 [Example 189, 7-(piperidin-4-yl)-3-{3-[4-(trifluoromethyl)pyridin-3-yl]-1,2,4-oxadiazol-5-yl}pyrazolo[1,5-a]pyrimidin-5(4H)-one hydrochloride]	38 nM
CC(C)N1CCC(c2noc(-c3cnn4c(C5CCNCC5)cc(=O)[nH]c34)n2)CC1 [Example 264, 7-(piperidin-4-yl)-3-{3-[1-(propan-2-yl)piperidin-4-yl]-1,2,4-oxadiazol-5-yl}pyrazolo[1,5-a]pyrimidin-5(4H)-one hydrochloride]	200 nM
CN(Cc1cccnc1)C(=O)c1cnn2c(C3CCNCC3)cc(=O)[nH]c12 [Example 318, N-methyl-5-oxo-7-(piperidin-4-yl)-N-(pyridin-3-ylmethyl)-4,5-dihydropyrazolo[1,5-a]pyrimidine-3-carboxamide hydrochloride]	45 nM
Cc1ccc(Cl)cc1-c1noc(-c2cnn3c(C4CCNCC4)cc(=O)[nH]c23)n1 [Example 141, 3-[3-(5-Chloro-2-methylphenyl)-1,2,4-oxadiazol-5-yl]-7-(piperidin-4-yl)pyrazolo[1,5-a]pyrimidin-5(4H)-one hydrochloride]	74 nM
O=c1cc(C2CCNCC2)n2ncc(-c3noc(-c4ccccc4F)n3)c2[nH]1 [Example 216, 3-[5-(2-fluorophenyl)-1,2,4-oxadiazol-3-yl]-7-(piperidin-4-yl)pyrazolo[1,5-a]pyrimidin-5 (4H)-one hydrochloride]	34 nM
Cc1ccccc1-c1noc(-c2cnn3c(C4CCNCC4)cc(=O)[nH]c23)n1 [Example 119, 3-[3-(2-Methylphenyl)-1,2,4-oxadiazol-5-yl]-7-(piperidin-4-yl)pyrazolo[1,5-a]pyrimidin-5 (4H)-one hydrochloride]	79 nM

Further lines, results first:

IC50	Compound
34 nM	O=c1cc(C2CCNCC2)n2ncc(-c3nnc(C4CC4)o3)c2[nH]1 [Example 174, 3-(5-cyclopropyl-1,3,4-oxadiazol-2-yl)-7-(piperidin-4-yl)pyrazolo[1,5-a]pyrimidin-5 (4H)-one hydrochloride]
25 nM	Cc1nn2c(C3CCNCC3)cc(=O)[nH]c2c1-c1nc(Cc2ccc(F)cc2)no1 [Example 299, 3-[3-(4-fluorobenzyl)-1,2,4-oxadiazol-5-yl]-2-methyl-7-(piperidin-4-yl)pyrazolo[1,5-a]pyrimidin-5(4H)-one hydrochloride]
27 nM	Cc1cc(CN(C)C(=O)c2cnn3c(C4CCNCC4)cc(=O)[nH]c23)no1 [Example 316, N-methyl-N-[(5-methyl-1,2-oxazol-3-yl)methyl]-5-oxo-7-(piperidin-4-yl)-4,5-dihydropyrazolo[1,5-a]pyrimidine-3-carboxamide hydrochloride]
34 nM	CC1(C)CCN(C(=O)c2cnn3c(C4CCNCC4)cc(=O)[nH]c23)C1 [Example 462, 3-[(3,3-dimethylpyrrolidin-1-yl)carbonyl]-7-(piperidin-4-yl)pyrazolo[1,5-a]pyrimidin-5 (4H)-one hydrochloride]
27 nM	COCCCc1nc(-c2cnn3c(C4CCNCC4)cc(=O)[nH]c23)no1 [Example 395, 3-(5-(3-methoxypropyl)-1,2,4-oxadiazol-3-yl)-7-(piperidin-4-yl)pyrazolo[1,5-a]pyrimidin-5(4H)-one hydrochloride]
30 nM	O=C(Nc1cccc(Cl)c1F)c1cnn2c(C3CCNCC3)cc(=O)[nH]c12 [Example 87, N-(3-chloro-2-fluorophenyl)-5-oxo-7-(piperidin-4-yl)-4,5-dihydropyrazolo[1,5-a]pyrimidine-3-carboxamide hydrochloride]
34 nM	O=c1cc(C2CCNCC2)n2ncc(-c3ccc4c(c3)OCCO4)c2[nH]1 [Example 61, 3-(2,3-Dihydro-1,4-benzodioxin-6-yl)-7-(piperidin-4-yl)pyrazolo[1,5-a]pyrimidin-5 (4H)-one hydrochloride]
32 nM	Cc1nn2c(C3CCNCC3)cc(=O)[nH]c2c1C(=O)N1CCC(C)(C)CC1 [Example 434, 3-[(4,4-dimethyl-piperidin-1-yl)carbonyl]-2-methyl-7-(piperidin-4-yl) pyrazolo[1,5-a] pyrimidin-5(4H)-one hydrochloride]
31 nM	Cc1nn2c(C3CCNCC3)cc(=O)[nH]c2c1C(=O)NCC(C)C [Example 418, N-isobutyl-2-methyl-5-oxo-7-(piperidin-4-yl)-4,5-dihydro-pyrazolo[1,5-a] pyrimidine-3-carboxamide hydrochloride]
26 nM	CC(C)(C)c1cnc(-c2cnn3c(C4CCNCC4)cc(=O)[nH]c23)o1 [Example 332, 3-(5-tert-butyl-1,3-oxazol-2-yl)-7-(piperidin-4-yl)pyrazolo[1,5-a]pyrimidin-5 (4H)-one hydrochloride]
34 nM	CC(C)S(=O)(=O)Cc1noc(-c2cnn3c(C4CCNCC4)cc(=O)[nH]c23)n1 [Example 201, 3-{3-[(isopropylsulfonyl)methyl]-1,2,4-oxadiazol-5-yl}-7-(piperidin-4-yl)pyrazolo[1,5-a]pyrimidin-5(4H)-one hydrochloride]
34 nM	CS(=O)(=O)Cc1noc(-c2cnn3c(C4CCNCC4)cc(=O)[nH]c23)n1 [Example 191, 3-{3-[(methylsulfonyl)methyl]-1,2,4-oxadiazol-5-yl}-7-(piperidin-4-yl)pyrazolo[1,5-a]pyrimidin-5(4H)-one hydrochloride]
28 nM	O=c1cc(C2CCNCC2)n2ncc(-c3nnc(-c4ccc(Cl)cc4)o3)c2[nH]1 [Example 181, 3-[5-(4-chlorophenyl)-1,3,4-oxadiazol-2-yl]-7-(piperidin-4-yl)pyrazolo[1,5-a]pyrimidin-5(4H)-one hydrochloride]
34 nM	O=c1cc(C2CCNCC2)n2ncc(-c3noc(-c4ccc(C(F)(F)F)cc4)n3)c2[nH]1 [Example 231, 7-(piperidin-4-yl)-3-{5-[4-(trifluoromethyl)phenyl]-1,2,4-oxadiazol-3-yl}pyrazolo[1,5-a]pyrimidin-5(4H)-one hydrochloride]
15 nM	COc1ccc(-c2cnn3c(C4CCNCC4)cc(=O)[nH]c23)cc1 [Example 53, 3-(4-Methoxyphenyl)-7-(piperidin-4-yl)pyrazolo[1,5-a]pyrimidin-5(4H)-one hydrochloride]
34 nM	Cc1nn2c(C3CCNCC3)cc(=O)[nH]c2c1-c1nc(C(F)(F)F)no1 [Example 341, 2-methyl-7-(piperidin-4-yl)-3-[3-(trifluoromethyl)-1,2,4-oxadiazol-5-yl]pyrazolo[1,5-a]pyrimidin-5(4H)-one hydrochloride]
34 nM	O=c1cc(C2CCNCC2)n2ncc(-c3nnc(-c4ccco4)o3)c2[nH]1 [Example 178, 3-[5-(2-furyl)-1,3,4-oxadiazol-2-yl]-7-(piperidin-4-yl)pyrazolo[1,5-a]pyrimidin-5 (4H)-one hydrochloride]
16 nM	C[C@H]1C[C@H](c2cc(=O)[nH]c3c(C(N)=O)cnn23)CCN1 [Example 51, (−)-trans-7-(2-Methylpiperidin-4-yl)-5-oxo-4,5-dihydropyrazolo[1,5-a]pyrimidine-3-carboxamide trifluoroacetate]
